Patent US20240000847A1, “METHODS” (bluebird bio, Inc., priority 2020, published 2024)
Like-named read-outs stand apart in the source and are kept apart here.

Key:
bone marrow macrophages = details: mice; for F4/80+ macrophage staining in bone marrow smears (pathology): Ctx dosed at 2×100 mg/kg, FIG. 2B, 100 mg/kg; for F4/80+ macrophage staining in bone marrow smears (pathology) / activation status of macrophages recruited to the bone marrow (FcγRI signal): compared to vehicle; for activation status of macrophages recruited to the bone marrow (FcγRI signal): FIG. 2A bottom panel
Protocol: Immunocompetent mice (C57Bl/6 or Balb/C) were dosed with vehicle of one of four different cyclophosphamide (Cytoxan) regimens including: one dose of 50 mg/kg, one dose of 100 mg/kg, two doses of 50 mg/kg approximately 48 hours apart, and two doses of 100 mg/kg approximately 48 hours apart. Three days following the final dose of the regimen, mouse bone marrow was evaluated for macrophage number and phenotype of. Flow cytometry was used to characterize bone marrow macrophages. Briefly, bone marrow was stained with murine macrophage markers including CD11b, F4/80, CD16 (FcγRIII; marker of activated macrophages), CD32 (FcγRII; inhibitory macrophage marker), CD68, and CD64 (FcγRI; marker of activated macrophages). In addition, bone marrow smears were prepared for pathology analysis and stained with F4/80 to quantify macrophages.

[1] = system: hematopoietic stem cells (LSK: lineage negative, Sca1+, ckit+); details: mice, 8.3-25 mg/kg anti-CD117 and anti-CD47 antibodies, two doses of 50 mg/kg cyclophosphamide, vs vehicle or antibodies alone
Protocol: In another experiment, immunocompetent mice (C57Bl/6 or Balb/C) were dosed with 8.3-25 mg/kg of anti-CD117 and anti-CD47 antibodies with or without two doses of 50 mg/kg of cyclophosphamide approximately 48 hours apart. Five to seven days after antibody treatment, mouse bone marrow was analyzed by flow cytometry or plated in methocellulose medium to evaluate impacts on the hematopoietic stem cells. […] FIG. 3.

What does the source list for `O=P1(N(CCCl)CCCl)NCCCO1` (centres unmarked) [cyclophosphamide]?
increase of macrophage content in the bone marrow (bone marrow macrophages; 1 or 2 doses of 50 or 100 mg/kg, three days after final dose, flow cytometry, FIG. 2A top panel): up to 2.5 fold; F4/80+ macrophage staining in bone marrow smears (pathology) (bone marrow macrophages): increased macrophage staining; F4/80+ macrophage staining in bone marrow smears (pathology) (bone marrow macrophages; listed as Cyclophosphamide): increase; macrophage recruitment in bone marrow compared to vehicle (bone marrow macrophages; FIG. 2A top panel): increased macrophage recruitment; activation status of macrophages recruited to the bone marrow (FcγRI signal) (bone marrow macrophages): increased macrophage activation; activation status of macrophages recruited to the bone marrow (FcγRI signal) (bone marrow macrophages; listed as Cyclophosphamide): enhanced activation status; depletion of stem cells (LSK) in the bone marrow ([1]; 5-7 days after antibody, FIG. 3 left): enhanced the antibody-mediated depletion; number of colony forming cells (CFUs) from bone marrow ([1]; methocellulose, FIG. 3 right): reduced the number of colony forming cells
